Data: patent US7279494B2, “Antimicrobial [3.1.0] bicyclohexylphenyl-oxazolidinone derivatives and analogues” (Pfizer Inc., priority 2003, dated 2007)
Values after ≈ are worked out from the molar mass of the structure shown.

Legend:
Assay type in all cases: cell-based
S. aureus UC9213 = experiment: MIC by standard agar dilution, S. aureus UC9213; conditions: incubated overnight at 35° C.; for MIC: Staphylococcus aureus, UC9213, Mueller Hinton agar
Description: (§1) The in vitro activity of compounds of the subject invention may be assessed by standard testing procedures such as the determination of minimum inhibitory concentration (MIC) by agar dilution as described in “Approved Standard. Methods for Dilution Antimicrobial Susceptibility Tests for Bacteria that Grow Aerobically,” 3rd ed., published 1993 by the National Committee for Clinical Laboratory standards, Villanova, Pa., USA.
(§2) The in vitro MICs of test compounds may be determined by a standard agar dilution method. A stock drug solution of each analog is prepared in a preferred solvent, usually DMSO:H2O (1:3). Serial 2-fold dilutions of each sample are made using 1.0 mL aliquots of sterile distilled water. To each 1.0 mL aliquot of drug is added 9 mL of molten Mueller Hinton agar medium. The drug-supplemented agar is mixed, poured into 15×100 mm petri dishes, and allowed to solidify and dry prior to inoculation.
(§3) Vials of each of the test organisms are maintained frozen in the vapor phase of a liquid nitrogen freezer. Test cultures are grown overnight at 35° C. on the medium appropriate for the organism. Colonies are harvested with a sterile swab, and cell suspensions are prepared in Trypticase Soy broth (TSB) to equal the turbidity of a 0.5 McFarland standard. A 1:20 dilution of each suspension is made in TSB. The plates containing the drug supplemented agar are inoculated with a 0.001 mL drop of the cell suspension using a Steers replicator, yielding approximately 10^4 to 10^5 cells per spot. The plates are incubated overnight at 35° C.
(§4) Following incubation the Minimum Inhibitory Concentration (MIC μg/mL), the lowest concentration of drug that inhibits visible growth of the organism, is read and recorded.

S. pneumoniae UC9912 = experiment: MIC by standard agar dilution, S. pneumoniae UC9912; conditions: incubated overnight at 35° C.; for MIC: Streptococcus pneumoniae, UC9912, Mueller Hinton agar
Description: as §1, §2, §3, §4

H. influenzae 30063 = experiment: MIC by standard agar dilution, H. influenzae 30063; conditions: Mueller Hinton agar, incubated overnight at 35° C.; for MIC: Haemophilus influenzae, 30063, agar dilution, read-out: H. influenzae 30063 MIC
Description: as §1, §2, §3, §4

| Compound | MIC (S. aureus UC9213) [µg/mL] | MIC (S. pneumoniae UC9912) [µg/mL] | MIC (H. influenzae 30063) [µg/mL] | S. aureus UC9213 MIC (S. aureus UC9213; Mueller Hinton agar) [µg/mL] | S. pneumoniae UC9912 MIC (S. pneumoniae UC9912; Mueller Hinton agar) [µg/mL] | H. influenzae 30063 MIC (H. influenzae 30063; agar dilution) [µg/mL] |
| --- | --- | --- | --- | --- | --- | --- |
| CC(=O)NC[C@H]1CN(c2ccc([C@H]3[C@@H]4CN(C(=O)[C@H]5CCCO5)C[C@@H]43)c(F)c2)C(=O)O1 [Example 41, N-[((5S)-3-{3-fluoro-4-[exo-(1R,5S)-3-(tetrahydrofuran-2-(R)-carbonyl)-3-azabicyclo[3.1.0]hex-6-yl]phenyl}-2-oxo-1,3-oxazolidin-5-yl)methyl]acetamide] | 4 (≈ 9.27 µM) | 2 (≈ 4.64 µM) | 32 (≈ 74.2 µM) |  |  |  |
| CC(=O)NC[C@H]1CN(c2ccc([C@H]3[C@@H]4CN(c5nn[nH]n5)C[C@@H]43)c(F)c2)C(=O)O1 [Example 44, N-[((5S)-3-{3-fluoro-4-[exo-(1R,5S)-3-(2H-tetrazol-5-yl)-3-azabicyclo[3.1.0]hex-6-yl]phenyl}-2-oxo-1,3-oxazolidin-5-yl)methyl]acetamide] | 16 (≈ 39.9 µM) | 32 (≈ 79.7 µM) | 64 (≈ 159 µM) |  |  |  |
| O=C(CO)NC[C@H]1CN(c2ccc([C@H]3[C@@H]4CS(=O)(=O)C[C@@H]43)c(F)c2)C(=O)O1 [Example 67, N-[((5S)-3-{3-fluoro-4-{exo-(1R,5 S)-3,3-dioxido-3-thiabicyclo[3.1.0]hex-6-yl]phenyl}-2-oxo-1,3-oxazolidin-5-yl)methyl]-2-hydroxyacetamide] | 4 (≈ 10 µM) | 4 (≈ 10 µM) | 4 (≈ 10 µM) |  |  |  |
| CC(=O)NC[C@H]1CN(c2ccc([C@H]3[C@@H]4CN(C(=O)CO)C[C@@H]43)c(F)c2)C(=O)O1 [Example 5, N-[((5S)-3-{3-fluoro-4-[exo-(1R,5S)-3-glycoloyl-3-azabicyclo[3.1.0]hex-6-yl]phenyl}-2-oxo-1,3-oxazolidin-5-yl)methyl]acetamide] | 2 (≈ 5.11 µM) | 0.25 (≈ 0.639 µM) | 4 (≈ 10.2 µM) |  |  |  |
| CC(=O)NC[C@H]1CN(c2ccc(N3CCOCC3)c(F)c2)C(=O)O1 [linezolid, reference compound] | 4 (≈ 11.9 µM) | 1 (≈ 2.96 µM) | 16 (≈ 47.4 µM) |  |  |  |
| CC(=O)NC[C@H]1CN(c2ccc([C@H]3[C@@H]4C[S+]([O-])C[C@@H]43)c(F)c2)C(=O)O1 (stereo partly drawn) [Example 2, N-[((5S)-3-{3-fluoro-4-[exo-(1R,5S)-3-oxido-3-thiabicyclo[3.1.0]hex-6-yl]phenyl}-2-oxo-1,3-oxazolidin-5-yl)methyl]acetamide] | 2 (≈ 5.46 µM) | 0.25 (≈ 0.682 µM) | 2 (≈ 5.46 µM) |  |  |  |
| CC(=O)NC[C@H]1CN(c2ccc([C@H]3[C@@H]4CS(=O)(=O)C[C@@H]43)c(F)c2)C(=O)O1 [Example 3, N-[((5S)-3-{4-[exo-(1R,5S)-3,3-dioxido-3-thiabicyclo[3.1.0]hex-6-yl]-3-fluorophenyl}-2-oxo-1,3-oxazolidin-5-yl)methyl]acetamide] | 2 (≈ 5.23 µM) | 0.25 (≈ 0.654 µM) | 4 (≈ 10.5 µM) |  |  |  |
| NC(=O)N1C[C@@H]2[C@H](C1)[C@H]2c1ccc(N2C[C@H](CNC(=S)C(F)F)OC2=O)cc1F [Example 11, exo-(1R,5S)-6-[4-((5S)-5-{[(2,2-difluoroethanethioyl)amino]methyl}-2-oxo-1,3-oxazolidin-3-yl)-2-fluorophenyl]-3-azabicyclo[3.1.0]hexane-3-carboxamide] | 0.5 (≈ 1.17 µM) | 0.25 (≈ 0.584 µM) | 2 (≈ 4.67 µM) |  |  |  |
| CC(F)(F)C(=O)NC[C@H]1CN(c2ccc([C@H]3[C@@H]4CS(=O)(=O)C[C@@H]43)c(F)c2)C(=O)O1 [Example 55, 2,2-difluoro-N-[((5S)-3-{3-fluoro-4-[exo-(1R,5S)-3,3-dioxido-3-thiabicyclo[3.1.0]hex-6-yl]phenyl}-2-oxo-1,3-oxazolidin-5-yl)methyl]propanamide] | 8 (≈ 18.5 µM) | 2 (≈ 4.63 µM) | 16 (≈ 37 µM) |  |  |  |
| NC(=O)N1C[C@@H]2[C@H](C1)[C@H]2c1c(F)cc(N2C[C@H](Cn3ccnn3)OC2=O)cc1F [Example 65, exo-(1R,5S)-6-{2,6-difluoro-4-[(5R)-2-oxo-5-(1H-1,2,3-triazol-1-ylmethyl)-1,3-oxazolidin-3-yl]phenyl}-3-azabicyclo[3.1.0]hexane-3-carboxamide] | 2 (≈ 4.95 µM) | 2 (≈ 4.95 µM) | 16 (≈ 39.6 µM) |  |  |  |
| CC(=O)NC[C@H]1CN(c2ccc([C@H]3[C@@H]4COC[C@@H]43)cc2)C(=O)O1 [Example 16, N-[((5S)-3-{4-[exo-(1R,5S)-3-oxabicyclo[3.1.0]hex-6-yl]phenyl}-2-oxo-1,3-oxazolidin-5-yl)methyl]acetamide] | 4 (≈ 12.6 µM) | 2 (≈ 6.32 µM) | 16 (≈ 50.6 µM) |  |  |  |
| CCC(=O)NC[C@H]1CN(c2ccc([C@H]3[C@@H]4CN(C(=O)CO)C[C@@H]43)c(F)c2)C(=O)O1 [Example 26, N-[((5S)-3-{3-fluoro-4-[exo-(1R,5S)-3-glycoloyl-3-azabicyclo[3.1.0]hex-6-yl]phenyl}-2-oxo-1,3-oxazolidin-5-yl)methyl]propanamide] | 1 (≈ 2.47 µM) | 0.5 (≈ 1.23 µM) | 4 (≈ 9.87 µM) |  |  |  |
| CCC(=O)NC[C@H]1CN(c2ccc([C@H]3[C@@H]4CNC[C@@H]43)c(F)c2)C(=O)O1 [Example 21, N-[((5S)-3-{4-[exo-(1R,5S)-3-azabicyclo[3.1.0]hex-6-yl]-3-fluorophenyl}-2-oxo-1,3-oxazolidin-5-yl)methyl]proyanamide] | 4 (≈ 11.5 µM) | 1 (≈ 2.88 µM) | 8 (≈ 23 µM) |  |  |  |
| CC(=O)NC[C@H]1CN(c2ccc([C@H]3[C@@H]4CN(c5ncccn5)C[C@@H]43)c(F)c2)C(=O)O1 [Example 43, N-[((5S)-3-{3-fluoro-4-[exo-(1R,5S)-3-(pyrimidin-2-yl)-3-azabicyclo[3.1.0]hex-6-yl]phenyl}-2-oxo-1,3-oxazolidin-5-yl)methyl]acetamide] | 4 (≈ 9.72 µM) | 1 (≈ 2.43 µM) | 32 (≈ 77.8 µM) |  |  |  |
| CC(F)(F)C(=O)NC[C@H]1CN(c2ccc([C@H]3[C@@H]4C[S+]([O-])C[C@@H]43)c(F)c2)C(=O)O1 (stereo partly drawn) [Example 54, 2,2-difluoro-N-[((5S)-3-{3-fluoro-4-[exo-(1R,5S)-3-oxido-3-thiabicyclo[3.1.0]-6-yl]phenyl}-2-oxo-1,3-oxazolidin-5-yl)methyl]propanamide] | 8 (≈ 19.2 µM) | 4 (≈ 9.61 µM) | 4 (≈ 9.61 µM) |  |  |  |
| CC(=O)NC[C@H]1CN(c2ccc([C@H]3[C@@H]4CN(C(=O)[C@@H](O)C(F)(F)F)C[C@@H]43)c(F)c2)C(=O)O1 [Example 33, N-[((5S)-3-{3-fluoro-4-[exo-(1R,5S)-3-(3,3,3-trifluoro-2-(S)-hydroxypropanoyl)-3-azabicyclo[3.1.0]hex-6-yl]phenyl}-2-oxo-1,3-oxazolidin-5-yl)methyl]acetamide] | 2 (≈ 4.35 µM) | 2 (≈ 4.35 µM) | 16 (≈ 34.8 µM) |  |  |  |
| CC(=O)NC[C@H]1CN(c2ccc([C@H]3[C@@H]4C[S+]([O-])C[C@@H]43)cc2)C(=O)O1 (stereo partly drawn) [Example 18, N-[((5S)-3-{4-[exo-(1R,5S)-3-oxido-3-thiabicyclo[3.1.0]hex-6-yl]phenyl}-2-oxo-1,3-oxazolidin-5-yl)methyl]acetamide] | 2 (≈ 5.74 µM) | 0.5 (≈ 1.44 µM) | 4 (≈ 11.5 µM) |  |  |  |
| CCC(=O)NC[C@H]1CN(c2cc(F)c([C@H]3[C@@H]4CS(=O)(=O)C[C@@H]43)c(F)c2)C(=O)O1 [Example 59, N-[((5S)-3-{3,5-difluoro-4-[exo-(1R,5S)-3,3-dioxido-3-thiabicyclo[3.1.0]hex-6-yl]phenyl}-2-oxo-1,3-oxazolidin-5-yl)methyl]propanamide] | 1 (≈ 2.41 µM) | 1 (≈ 2.41 µM) | 4 (≈ 9.65 µM) |  |  |  |
| CC(=O)NC[C@H]1CN(c2ccc([C@H]3[C@@H]4CN(C(=N)N)C[C@@H]43)c(F)c2)C(=O)O1 [Example 72, N-{[(5S)-3-(4-{exo-(1R,5S)-3-[amino(imino)methyl]-3-azabicyclo[3.1.0]hex-6-yl}-3-fluorophenyl)-2-oxo-1,3-oxazolidin-5-yl]methyl}acetamide] | 32 (≈ 85.2 µM) | 8 (≈ 21.3 µM) | 64 (≈ 170 µM) |  |  |  |
| CC(=O)NC[C@H]1CN(c2cc(F)c([C@H]3[C@@H]4CN(C(=O)CO)C[C@@H]43)c(F)c2)C(=O)O1 [Example 15, N-[((5S)-3-{3,5-difluoro-4-[exo-(1R,5S)-3-glycoloyl-3-azabicyclo[3.1.0]hex-6-yl]phenyl}-2-oxo-1,3-oxazolidin-5-yl)methyl]acetamide] | 2 (≈ 4.89 µM) | 0.5 (≈ 1.22 µM) | 16 (≈ 39.1 µM) |  |  |  |
| O=C(NC[C@H]1CN(c2ccc([C@H]3[C@@H]4CS(=O)(=O)C[C@@H]43)c(F)c2)C(=O)O1)C1CCC1 [Example 57, N-[((5S)-3-{3-fluoro-4-[exo-(1R,5S)-3,3-dioxido-3-thiabicyclo[3.1.0]hex-6-yl]phenyl}-2-oxo-1,3-oxazolidin-5-yl)methyl]cyclobutanecarboxamide] | 8 (≈ 18.9 µM) | 2 (≈ 4.73 µM) | 32 (≈ 75.7 µM) |  |  |  |
| N-[((5S)-3-{3-fluoro-4-[exo-(1R,5S)-3-(1-methyl-1H-tetrazol-5-yl)-3-azabicyclo[3.1.0]hex-6-yl]phenyl}-2-oxo-1,3-oxazolidin-5-yl)methyl]acetamide [Example 45] |  |  |  | 4 | 4 | 16 |
